The record followed here is patent US8097422B2, “Kir channel modulators” (Salk Institute for Biological Studies, priority 2007, dated 2012).

Positions count from the first letter of the chain named.

What all share (assay type): cell-based
One assay concerns the target T1, GIRK2 PIP L257W mutant (Mus musculus, UniProt P48542, D228N/I234L/L257W/M344L/N231K).
T1 construct: expressed in transfected cells; host or cells: HEK293 / HEK293T
T1 sequence (P48542 1-425 D228N/N231K/I234L/L257W/M344L): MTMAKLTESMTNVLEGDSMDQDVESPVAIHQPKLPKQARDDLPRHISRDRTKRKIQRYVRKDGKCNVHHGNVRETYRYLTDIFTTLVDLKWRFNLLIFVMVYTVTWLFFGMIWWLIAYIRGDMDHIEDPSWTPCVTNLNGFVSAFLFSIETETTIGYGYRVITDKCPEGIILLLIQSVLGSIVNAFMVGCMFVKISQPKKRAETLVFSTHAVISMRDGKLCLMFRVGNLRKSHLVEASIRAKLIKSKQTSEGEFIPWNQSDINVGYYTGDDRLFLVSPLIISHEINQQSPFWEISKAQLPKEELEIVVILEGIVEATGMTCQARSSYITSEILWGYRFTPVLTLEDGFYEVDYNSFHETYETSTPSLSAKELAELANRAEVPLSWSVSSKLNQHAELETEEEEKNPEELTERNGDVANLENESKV
The experiment in a line: whole-cell patch clamp, GIRK2 PIP L257W mutant channel. Conditions: for inhibition of GIRK2 PIP L257W mutant channel, percentage inhibition: equimolar alcohol series (50 mM); for IC50: dose response, read-out: IC50 for inhibition of GIRK2 PIP L257W mutant. As to the method:
(§1) Point mutations were introduced by Quickchange site directed mutagenesis kit (Stratagene). The GIRK2 PIP mutant was generated by overlap-PCR method. […] Mutations were confirmed by automated DNA sequencing methods. […] Cells were plated in a 12 well dish, and were transiently transfected using Lipofectamine 2000 (Invitrogen). After 12-24 hrs, cells were re-plated to 12-mm glass coverslips coated with poly-D-[…] microgram/ml). […] The cells were co-transfected with 0.04 micrograms of eYFP cDNA to identify transfected cells. 0.8 micrograms of Muscarinic Receptor 2 (M2R) was also co-transfected for experiments with Carbachol. […] Whole-cell patch clamp recordings were performed 24-72 hrs after transfection. […] Alcohols, 5 μM Carbachol, and 1 mM BaCl2 (diluted in 20K solution) were applied from outside the cell with the rapid perfusion system (Warner Instruments). […] Current-voltage relationships also were obtained from the ramp protocol. This protocol was used to measure the inwardly rectifying currents at -100 mV and to ensure stability of recording by monitoring a reversal potential and inward rectification. […] Alcohol and Carbachol modulated currents were measured by averaging two consecutive current readings upon reaching steady state, and subtracting the averaged basal current before and after the application of modulator.
In general terms: Patch clamp records ionic current or voltage across a cell membrane.

In assay [1] the target is T2, GIRK2 L257A mutant channel (Mus musculus, UniProt P48542, L257A).
T2 construct: expressed in transfected cells; host or cells: HEK293T
T2 sequence (P48542 1-425 L257A): T1 sequence (P48542 1-425 D228N/N231K/I234L/L257W/M344L) with N228D, K231N, L234I, W257A, L344M
As to the kind of experiment: whole-cell patch clamp, GIRK2 L257A mutant channel. Conditions: n=9; for activation of GIRK2 L257A, percentage change from basal current: alcohols as for wild type (100 mM). As to the method:
as §1

In assay [2] the target is T3, GIRK4* Leu252 to Tyr mutant channel (Rattus norvegicus, UniProt P48548, L252Y/S143T).
T3 construct: expressed in transfected cells; host or cells: HEK293 / HEK293T
T3 sequence (P48548 1-419 S143T/L252Y): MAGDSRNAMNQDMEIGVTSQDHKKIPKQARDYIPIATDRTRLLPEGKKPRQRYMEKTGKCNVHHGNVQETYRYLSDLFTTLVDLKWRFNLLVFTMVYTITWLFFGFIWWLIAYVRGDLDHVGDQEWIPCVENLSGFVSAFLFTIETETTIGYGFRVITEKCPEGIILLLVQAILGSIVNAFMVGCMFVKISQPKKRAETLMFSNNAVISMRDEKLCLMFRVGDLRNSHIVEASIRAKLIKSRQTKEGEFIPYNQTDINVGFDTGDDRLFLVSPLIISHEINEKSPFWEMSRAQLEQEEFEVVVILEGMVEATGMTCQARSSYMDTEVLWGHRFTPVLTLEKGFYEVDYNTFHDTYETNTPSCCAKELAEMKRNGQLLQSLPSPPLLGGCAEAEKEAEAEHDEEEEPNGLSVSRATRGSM
As to the kind of experiment: whole-cell patch clamp, GIRK4* L252Y mutant channel. The following applies: for activation of GIRK4* Leu252 to Tyr mutant, percentage change from basal: n=8. The method, then:
as §1

In the case of 1-butanol [1-BuOH], on GIRK2 PIP L257W mutant, the “inhibition of GIRK2 PIP L257W mutant channel, percentage inhibition” value (shortened to “inhibition … percentage inhibition”) is −99±3%.
As a reminder, the IC50 is the concentration at which inhibition is half-maximal. Consider 1-propanol [1-PrOH], for which the “activation of GIRK2 L257A, percentage change from basal current” value in assay [1] is given as 467±44%. Besides, on GIRK2 PIP L257W mutant, the IC50 was roughly 5.1 mM and the “inhibition … percentage inhibition” value is reported as −92±1%. Moreover, in assay [2], the “activation of GIRK4* Leu252 to Tyr mutant, percentage change from basal” value came out at 15±3%.
Consider `CC(O)CC(C)(C)O` (racemic) [MPD, 2-methyl-2,4-pentanediol], for which the “activation of GIRK2 L257A, percentage change from basal current” value in assay [1] was 330±27%. Moreover, at GIRK2 PIP L257W mutant, the concentration for half-maximal inhibition (IC50) is roughly 7.7 mM and the “inhibition … percentage inhibition” value is on record as −84±3%.
As to `C[N+](C)(C)CCOC(N)=O` [Carbachol], in assay [1] (5 μM Carbachol, M2R co-transfected), the “Carbachol activated currents, GIRK2 L257A, percentage change from basal current” value stood at 36±6%. The “Carb (G-protein mediated) activation, GIRK4* L252 Tyr” value in assay [2] (5 μM Carbachol) is 110±14%.
For the compound `CCO` [EtOH, ethanol], in assay [1], the “activation of GIRK2 L257A, percentage change from basal current” value is 132±9%. Further, the “inhibition … percentage inhibition” value against GIRK2 PIP L257W mutant is recorded as −20±2%. Also, the “activation of GIRK4* Leu252 to Tyr mutant, percentage change from basal” value in assay [2] turned out to be 20±3%.
